Test results taken from publication PMC3206020, “Analogous Mechanisms of Resistance to Benzothiazinones and Dinitrobenzamides in Mycobacterium smegmatis” (PLoS ONE, 2011).

Tests used:
NfnB = molecular target: T1, NfnB (Mycolicibacterium smegmatis, UniProt A0R6D0); assay: LC/MS/MS detection of conversion of DNB1 to its hydroxylamine by purified NfnB; format: biochemical
T1 construct: purified NfnB protein

DprE1 (MSMEG_6382) = molecular target: T2, DprE1 (MSMEG_6382) (Mycolicibacterium smegmatis, UniProt A0R607); assay: steady-state fluorescence titration (enzyme-bound FAD fluorescence); format: binding
T2 construct: recombinant DprE1 expressed as N-terminal six-histidine and thioredoxin fusion (pET-32b), digested with PreScission Protease

Structure (SMILES): COc1ccc(OCCNC(=O)c2cc([N+](=O)[O-])cc([N+](=O)[O-])c2)cc1 [DNB1, N-(2-(4-methoxyphenoxy)ethyl)-3,5-dinitrobenzamide]
- LC/MS/MS detection of conversion of DNB1 to its hydroxylamine by purified NfnB (NfnB): NfnB was able to convert DNB1 into the corresponding hydroxyl amine-derivative in the presence of NADPH
- Kd (DprE1 (MSMEG_6382)): 7.3 ± 0.8 µM

Structure (SMILES): O=C(NCCOCc1cccc(Cl)c1)c1cc([N+](=O)[O-])cc([N+](=O)[O-])c1 [DNB3, N-(2-(3-chlorobenzyloxy)ethyl)-3,5-dinitrobenzamide]
- Kd (DprE1 (MSMEG_6382)): 1.8 ± 0.1 µM
